Experiments:
bovine A1AR = molecular target: bovine A1AR; design: method as in PMID 21080692; details: reference compound; cited from earlier work
human A3AR = molecular target: T1, human A3AR (Homo sapiens, UniProt P0DMS8); test: Radioligand binding ([125I]I-AB-MECA), membranes of CHO cells expressing hA3AR; details: for inhibition at 10 µM: percent inhibition at 10 µM compound, [125I]I-AB-MECA, read-out: A3 % Inhibition; for inhibition at 10 µM / Ki: hA3AR, CHO cell membranes; for Ki: [125I]I-AB-MECA 0.2 nM, mean ± standard error, read-out: A3 Ki
T1 construct: expressed in transfected cells
T1 sequence (P0DMS8 1-318): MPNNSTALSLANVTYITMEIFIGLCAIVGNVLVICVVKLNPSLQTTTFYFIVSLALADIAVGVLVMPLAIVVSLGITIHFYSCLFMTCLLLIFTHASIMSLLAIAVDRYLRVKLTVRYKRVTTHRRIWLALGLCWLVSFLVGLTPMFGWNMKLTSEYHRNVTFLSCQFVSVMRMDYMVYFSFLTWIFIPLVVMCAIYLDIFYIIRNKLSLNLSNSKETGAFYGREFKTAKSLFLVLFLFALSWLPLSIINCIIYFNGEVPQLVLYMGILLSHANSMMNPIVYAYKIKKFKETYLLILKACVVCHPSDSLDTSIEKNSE
Experimental: (§1) Binding affinity for three human AR (hAR) subtypes was measured using standard radioligand assays and membrane preparations from Chinese hamster ovary (CHO) cells (A1 and A3) or human embryonic kidney (HEK) 293 cells (A2A) stably expressing a hAR subtype (Table 1).
(§2) Receptor binding assays: [^3H]8-Cyclopentyl-1,3-dipropylxanthine ([^3H]DPCPX, 120 Ci/mmol) and [^125I]N ^6-(4-amino-3-iodobenzyl)adenosine-5'-N-methyluronamide ([^125I]I-AB-MECA, 2200 Ci/mmol) were purchased from Perkin–Elmer Life and Analytical Science (Boston, MA). [^3H](2-[p-(2-Carboxyethyl)phenyl-ethylamino]-5'-N-ethylcarboxamido-adenosine) ([^3H]CGS21680, 39 Ci/mmol) was purchased from American Radiolabeled Chemicals, Inc. (St. Louis, MO). Other pharmacological reagents were purchased from Tocris-R&D Systems, Inc. (Minneapolis, MN). Test compounds were prepared as 5 mM stock solutions in DMSO and stored frozen.
(§3) Cell Culture and Membrane Preparation: CHO cells stably expressing the recombinant hA1 and hA3ARs, and HEK-293 cells stably expressing the hA2AAR were cultured in Dulbecco’s modified Eagle medium (DMEM) and F12 (1∶1) supplemented with 10% fetal bovine serum, 100 units/mL penicillin, 100 µg/mL streptomycin, and 2 µmol/mL glutamine. In addition, 800 µg/mL geneticin was added to the A2A media, while 500 µg/mL hygromycin was added to the A1 and A3 media. After harvesting, cells were homogenized and suspended in PBS. Cells were then centrifuged at 240 g for 5 min, and the pellet was resuspended in 50 mM Tris-HCl buffer (pH 7.5) containing 10 mM MgCl2. The suspension was homogenized and was then ultra-centrifuged at 14,330 g for 30 min at 4°C. The resultant pellets were resuspended in Tris buffer and incubated with adenosine deaminase (3 units/mL) for 30 min at 37°C. The suspension was homogenized with an electric homogenizer for 10 sec, pipetted into 1 mL vials and then stored at -80°C until the binding experiments. The protein concentration was measured using the BCA Protein Assay Kit from Pierce Biotechnology, Inc. (Rockford, IL).
(§4) Binding assays: Standard radioligand binding assays for A1, A2A, and A3ARs were used [37]–[39]. Into each tube in the binding assay was added 50 µL of increasing concentrations of the test ligand in Tris-HCl buffer (50 mM, pH 7.5) containing 10 mM MgCl2, 50 µL of the appropriate agonist radioligand, and finally 100 µL of membrane suspension. For the A1AR (22 µg of protein/tube) the radioligand used was [^3H]DPCPX (final concentration of 0.5 nM). For the A2AAR (20 µg/tube) the radioligand used was [^3H]CGS21680 (final concentration 10 nM). For the A3AR (21 µg/tube) the radioligand used was [^125I]I-AB-MECA (final concentration 0.2 nM). Nonspecific binding was determined using a final concentration of 10 µM NECA diluted with the buffer. The mixtures were incubated at 25°C for 60 min in a shaking water bath. Binding reactions were terminated by filtration through Brandel GF/B filters under a reduced pressure using a M-24 cell harvester (Brandel, Gaithersburg, MD). Filters were washed three times with 3 mL of 50 mM ice-cold Tris-HCl buffer (pH 7.5). Filters for A1 and A2AAR binding were placed in scintillation vials containing 5 mL of Hydrofluor scintillation buffer and counted using a Perkin Elmer Liquid Scintillation Analyzer (Tri-Carb 2810TR). Filters for A3AR binding were counted using a Packard Cobra II γ-counter.
(§5) Data analysis: Binding and functional parameters were calculated using Prism 5.0 software (GraphPAD, San Diego, CA, USA). IC50 values obtained from binding inhibition curves were converted to Ki values using the Cheng-Prusoff equation [40]. Data were expressed as mean ± standard error or percentage inhibition at 10 µM.

human A2AAR = molecular target: T2, human A2AAR (Homo sapiens, UniProt P29274); test: Radioligand binding ([3H]CGS21680), membranes of HEK293 cells expressing hA2AAR; details: HEK293 cell membranes; for Ki: [3H]CGS21680 10 nM, mean ± standard error, read-out: A2A Ki; for inhibition at 10 µM: percent inhibition at 10 µM compound, [3H]CGS21680, read-out: A2A % Inhibition
T2 construct: expressed in transfected cells
T2 sequence (P29274 whole entry): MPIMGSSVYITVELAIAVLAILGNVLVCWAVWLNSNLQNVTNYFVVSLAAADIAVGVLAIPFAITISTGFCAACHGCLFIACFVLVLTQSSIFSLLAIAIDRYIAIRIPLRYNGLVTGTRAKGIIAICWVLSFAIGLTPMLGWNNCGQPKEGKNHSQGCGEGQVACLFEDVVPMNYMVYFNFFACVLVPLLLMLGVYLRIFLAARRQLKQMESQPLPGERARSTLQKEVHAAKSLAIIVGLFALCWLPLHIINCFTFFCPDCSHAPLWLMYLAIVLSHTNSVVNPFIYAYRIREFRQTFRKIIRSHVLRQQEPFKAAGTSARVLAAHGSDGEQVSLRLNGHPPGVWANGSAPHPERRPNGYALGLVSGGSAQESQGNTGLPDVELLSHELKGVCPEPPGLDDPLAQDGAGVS
Experimental: as §1, §2, §3, §4, §5

human A1AR = molecular target: T3, human A1AR (Homo sapiens, UniProt P30542); test: Radioligand binding ([3H]DPCPX), membranes of CHO cells expressing hA1AR; details: for inhibition at 10 µM: percent inhibition at 10 µM compound, [3H]DPCPX, read-out: A1 % Inhibition; for inhibition at 10 µM / Ki: hA1AR, CHO cell membranes; for Ki: [3H]DPCPX 0.5 nM, mean ± standard error, read-out: A1 Ki
T3 construct: expressed in transfected cells
T3 sequence (P30542 1-326): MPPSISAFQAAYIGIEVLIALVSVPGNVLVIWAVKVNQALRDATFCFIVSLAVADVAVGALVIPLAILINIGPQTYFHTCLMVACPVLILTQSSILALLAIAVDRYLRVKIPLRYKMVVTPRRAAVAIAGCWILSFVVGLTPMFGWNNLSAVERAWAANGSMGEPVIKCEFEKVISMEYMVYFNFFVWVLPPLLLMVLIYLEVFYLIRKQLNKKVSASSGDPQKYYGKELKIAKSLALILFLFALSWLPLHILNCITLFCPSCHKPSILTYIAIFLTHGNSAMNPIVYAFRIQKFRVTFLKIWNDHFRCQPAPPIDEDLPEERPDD
Experimental: as §1, §2, §3, §4, §5

Row | Compound | Ki (human A2AAR) [µM] | inhibition at 10 µM (human A1AR) [%] | Ki (human A1AR) [µM] | Ki (human A3AR) [µM] | also measured
1 | OC1CCC(Nc2nc(-c3ccccc3)nc3c2nnn3Cc2ccccc2)CC1 (stereo not drawn) [Compound 5, 4-[(3-benzyl-5-phenyl-triazolo[4,5-e]pyrimidin-7-yl)amino]cyclohexan-1-ol] |  |  |  |  | Ki (bovine A1AR): 0.003 µM
2 | O=C(Nc1nc(-c2ccccn2)cs1)c1cccc(-n2cnnn2)c1 [Compound 8] |  |  | 3.46 ± 0.42 |  | inhibition at 10 µM (human A3AR): 35 ± 4%; inhibition at 10 µM (human A2AAR): 11 ± 6%; Selectivity for A1AR over A2AAR and A3AR (human A1AR; by the criteria used in this screen (>50% inhibition at 10 µM)): selective for the A1AR
3 | O=C(Nc1nc(-c2ccccn2)cs1)c1cc2c(F)cccc2[nH]1 [Compound 10] |  | 9 ± 9 |  | 9.06 ± 1.1 | inhibition at 10 µM (human A2AAR): 37 ± 1%
4 | CCCn1nc(C(=O)Nc2nc(-c3ccccn3)cs2)ccc1=O [Compound 11] |  | 13 ± 9 |  | 13.7 | inhibition at 10 µM (human A2AAR): 35 ± 3%
5 | COc1cccc(/C=C/C(=O)Nc2nc(-c3ccccn3)cs2)c1 [Compound 13] | 10.9 | 10 ± 10 |  | 3.48 ± 1.1 | 
6 | Cc1cccc2c(=O)[nH]c(CSc3n[nH]c(C(C)C)n3)nc12 [Compound 14] | 6.54 ± 1.09 | 19 ± 10 |  |  | inhibition at 10 µM (human A3AR): 49 ± 1%
7 | Nc1nc(COC(=O)c2cc3cc(F)ccc3[nH]2)nc2ccccc12 [Compound 15] |  | 20 ± 4 |  | 9.33 ± 1.8 | inhibition at 10 µM (human A2AAR): 5 ± 3%
8 | CN(C(=O)Cc1csc(NC(=O)C2CC2)n1)c1ccccc1 [Compound 16] |  | 13 ± 2 |  | 13.4 | inhibition at 10 µM (human A2AAR): 36 ± 0.2%
9 | Cn1c(=O)c2[nH]c(NCC3CCCO3)nc2n(-c2ccccc2)c1=O (stereo not drawn) [Compound 19] | 6.66 ± 0.86 |  | 3.34 ± 0.56 |  | inhibition at 10 µM (human A3AR): 23 ± 3%
10 | CCN(Cc1nc2ccccc2c(=O)[nH]1)C(=O)c1cc(C2CC2)[nH]n1 [Compound 22] | 9.3 ± 0.7 | 36 |  |  | inhibition at 10 µM (human A3AR): 42 ± 6%
11 | Nc1nc(Cn2nnc(-c3ccccc3)n2)nc(Nc2ccccc2)n1 [Compound 24] | 6.14 ± 1.69 | 33 ± 9 |  | 0.04 ± 0.006 | Selectivity for A3AR (human A3AR; judged from Ki at the three hAR subtypes): slightly selective

The remaining molecules from weak to strong by Ki (human A2AAR), led by results:

Row | Ki (human A2AAR) [µM] | inhibition at 10 µM (human A1AR) [%] | Ki (human A1AR) [µM] | Ki (human A3AR) [µM] | Compound | also measured
12 | 3.78 ± 0.83 |  | 1.22 ± 0.34 | 0.07 ± 0.02 | O=C(Nc1nc(-c2cccc(F)c2)cs1)c1ccc2[nH]nnc2c1 [Compound 23] | 
13 | 3.65 ± 0.87 | 28 ± 9 |  | 2.78 ± 0.92 | COc1ccc(OCC(=O)Nc2nc(-c3ccccn3)cs2)cc1 [Compound 12] | 
14 | 3.56 ± 0.51 | 45 |  | 1.52 ± 0.36 | N#Cc1cccc(C(=O)Nc2nc(-c3ccccn3)cs2)c1 [Compound 20] | 
15 | 3.31 ± 0.27 | 17 ± 9 |  |  | CC(NC(=O)c1ccco1)C(=O)Nc1nc(-c2ccccn2)cs1 (stereo not drawn) [Compound 7] | inhibition at 10 µM (human A3AR): 43 ± 3%
16 | 2.36 ± 0.26 | 2 ± 2 |  | 4.86 ± 0.33 | Cc1ccccc1Nc1nc(N)nc(COc2ccccc2C#N)n1 [Compound 9] | 
17 | 2.13 ± 0.72 |  | 3.43 ± 1.03 | 1.76 ± 0.21 | Cn1nnnc1SCC(=O)Nc1nc(-c2cccs2)cs1 [Compound 18] | 
18 | 1.45 ± 0.17 |  | 2.93 ± 0.48 | 0.55 ± 0.07 | C=CCOc1ccccc1/C=N/Nc1nc2ccccc2c(=O)n1C [Compound 25] | 
19 | 1.37 ± 0.47 |  | 3.94 ± 0.39 | 3.85 ± 0.59 | Cc1cc(C)c2c(=O)[nH]c(SCC(=O)Nc3cc(C)on3)nc2n1 [Compound 26] | 
20 | 1.34 ± 0.31 |  | 0.98 ± 0.09 | 0.205 ± 0.03 | CCS(=O)(=O)Nc1cccc(C(=O)Nc2nc3ccccc3[nH]2)c1 [Compound 21] | 
21 | 0.74 ± 0.39 |  | 0.4 ± 0.06 |  | CCOc1cccc2cc(C(=O)NCc3ccccn3)c(=N)oc12 [Compound 17] | inhibition at 10 µM (human A3AR): 48 ± 7%

— article PMC3503826, “Limits of Ligand Selectivity from Docking to Models: In Silico Screening for A1 Adenosine Receptor Antagonists” (PLoS ONE, 2012)
